Source: patent publication US8329725B2, “Annelated pyrrolidin sulfonamides with oxadiazolone headgroup, processes for their preparation and their use as pharmaceuticals” (Sanofi, priority 2008, dated 2012)

Legend:
human PPARalpha = target: T1, human PPARalpha (Homo sapiens, UniProt Q07869); assay: Cellular PPARalpha assay (luciferase reporter, stably transfected HEK cell line); type: cell-based; conditions: PPARalpha reporter cell line (HEK, GR-GAL4-humanPPARalpha-LBD)
T1 construct: human PPARalpha receptor (amino acids S167-Y468); expressed in transfected cells
T1 sequence (Q07869 167-468): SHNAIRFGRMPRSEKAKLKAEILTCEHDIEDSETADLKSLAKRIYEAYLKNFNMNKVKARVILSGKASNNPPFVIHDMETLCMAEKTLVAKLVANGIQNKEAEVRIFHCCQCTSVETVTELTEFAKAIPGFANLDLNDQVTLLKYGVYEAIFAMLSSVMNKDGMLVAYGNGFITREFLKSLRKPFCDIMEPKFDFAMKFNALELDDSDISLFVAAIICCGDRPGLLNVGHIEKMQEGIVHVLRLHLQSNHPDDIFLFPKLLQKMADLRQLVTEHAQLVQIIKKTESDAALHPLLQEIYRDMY
Description: Determination of EC50 Values of PPAR Agonists in the Cellular PPARalpha Assay
The potency of substances which bind to human PPARalpha and activate it in an agonistic manner is analyzed using a stably transfected HEK cell line (HEK=human embryo kidney) which is referred to here as PPARalpha reporter cell line. It contains two genetic elements, a luciferase reporter element (pdeltaM-GAL4-Luc-Zeo) and a PPARalpha fusion protein (GR-GAL4-humanPPARalpha-LBD) which mediates expression of the luciferase reporter element depending on a PPARalpha ligand. The stably and constitutively expressed fusion protein GR-GAL4-humanPPARalpha-LBD binds in the cell nucleus of the PPARalpha reporter cell line via the GAL4 protein portion to the GAL4 DNA binding motifs 5′-upstream of the luciferase reporter element which is stably integrated in the genome of the cell line. There is only weak expression of the luciferase reporter gene in the absence of a PPARalpha ligand if fatty acid-depleted fetal calf serum (cs-FCS) is used in the assay. PPARalpha ligands bind and activate the PPARalpha fusion protein and thereby stimulate the expression of the luciferase reporter gene. The luciferase which is formed can be detected by means of chemiluminescence via an appropriate substrate. […]
The activity of PPARalpha agonists is determined in a 3-day assay which is described below: […]

human PPARdelta = target: T2, human PPARdelta (Homo sapiens, UniProt Q03181); assay: Cellular PPARdelta assay (luciferase reporter, stably transfected HEK cell line); type: cell-based; conditions: PPARdelta reporter cell line (HEK, GR-GAL4-humanPPARdelta-LBD)
T2 construct: human PPARdelta receptor (amino acids S139-Y441); expressed in transfected cells
T2 sequence (Q03181 139-441): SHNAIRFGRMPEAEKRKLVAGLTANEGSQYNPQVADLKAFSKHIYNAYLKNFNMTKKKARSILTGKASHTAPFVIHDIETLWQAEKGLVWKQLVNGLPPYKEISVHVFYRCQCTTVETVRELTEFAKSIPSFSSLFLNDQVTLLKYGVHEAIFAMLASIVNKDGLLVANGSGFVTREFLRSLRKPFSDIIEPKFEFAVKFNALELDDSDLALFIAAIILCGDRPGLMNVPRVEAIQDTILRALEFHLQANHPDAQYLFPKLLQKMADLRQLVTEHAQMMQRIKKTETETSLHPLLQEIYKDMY
Description: Determination of EC50 Values of PPAR Agonists in the Cellular PPARdelta Assay
The potency of substances which bind to human PPARdelta and activate it in an agonistic manner is analyzed using a stably transfected HEK cell line (HEK=human embryo kidney) which is referred to here as PPARdelta reporter cell line. In analogy to the assay described for PPARalpha, the PPARdelta reporter cell line also contains two genetic elements, a luciferase reporter element (pdeltaM-GAL4-Luc-Zeo) and a PPARdelta fusion protein (GR-GAL4-humanPPARdelta-LBD) which mediates expression of the luciferase reporter element depending on a PPARdelta ligand. The stably and constitutively expressed fusion protein GR-GAL4-humanPPARdelta-LBD binds in the cell nucleus of the PPARdelta reporter cell line via the GAL4 protein portion to the GAL4 DNA binding motifs 5′-upstream of the luciferase reporter element which is stably integrated in the genome of the cell line. There is only little expression of the luciferase reporter gene in the absence of a PPARdelta ligand if fatty acid-depleted fetal calf serum (cs-FCS) is used in the assay. PPARdelta ligands bind and activate the PPARdelta fusion protein and thereby stimulate expression of the luciferase reporter gene. The luciferase which is formed can be detected by means of chemiluminescence via an appropriate substrate.
The production of the stable PPARdelta reporter cell line is based on a stable HEK-cell clone which was stably transfected with a luciferase reporter element. This step was already described above in the section “construction of the PPARalpha reporter cell line”. In a second step, the PPARdelta fusion protein (GR-GAL4-humanPPARdelta-LBD was stably introduced into this cell clone. For this purpose, the cDNA coding for the N-terminal 76 amino acids of the glucocorticoid receptor (Accession #P04150) was linked to the cDNA section coding for amino acids 1-147 of the yeast transcription factor GAL4 (Accession #P04386). The cDNA of the ligand-binding domain of the human PPARdelta receptor (amino acids S139-Y441; Accession #L07592) was cloned in at the 3′-end of this GR-GAL4 construct. The fusion construct prepared in this way (GR-GAL4-humanPPARdelta-LBD) was recloned into the plasmid pcDNA3 (Invitrogen) in order to enable constitutive expression by the cytomegalovirus promoter. This plasmid was linearized with a restriction endonuclease and stably transfected into the previously described cell clone containing the luciferase reporter element. […]
The activity of PPARdelta agonists is determined in a 3-day assay in exact analogy to the procedure already described for the PPARalpha reporter cell line except that the PPARdelta reporter cell line and a specific PPARdelta agonist was used as a standard to control test efficacy.

EC50 (human PPARalpha)	EC50 (human PPARdelta)	SMILES
800 nM	2.5 nM	CC1(C)CN(S(=O)(=O)c2ccc(-c3noc(=O)[nH]3)c(Cl)c2)c2ccc(-c3ccc(C(F)(F)F)cc3)nc21 [Example 16, 3-{2-Chloro-4-[3,3-dimethyl-5-(4-trifluoromethyl-phenyl)-2,3-dihydro-pyrrolo[3,2-b]pyridine-1-sulfonyl]-phenyl}-4H-[1,2,4]oxadiazol-5-one]
	3550 nM	COc1nc(C)ccc1-c1ccc2c(c1)CCN2S(=O)(=O)c1ccc(-c2noc(=O)[nH]2)cc1 [Example 5, 3-{4-[5-(2-Methoxy-6-methyl-pyridin-3-yl)-2,3-dihydro-indole-1-sulfonyl]-phenyl}-4H-[1,2,4]oxadiazol-5-one]
1890 nM	34 nM	O=c1[nH]c(-c2ccc(S(=O)(=O)N3CCc4cc(-c5ccc(C(F)(F)F)cc5)cnc43)cc2Cl)no1 [Example 14, 3-{2-Chloro-4-[5-(4-trifluoromethyl-phenyl)-2,3-dihydro-pyrrolo[2,3-b]pyridine-1-sulfonyl]-phenyl}-4H-[1,2,4]oxadiazol-5-one]
	1300 nM	COc1ccc(-c2ccc3c(c2)CCN3S(=O)(=O)c2ccc(-c3noc(=O)[nH]3)cc2)nc1 [Example 8, 3-{4-[5-(5-Methoxy-pyridin-2-yl)-2,3-dihydro-indole-1-sulfonyl]-phenyl}-4H-[1,2,4]oxadiazol-5-one]
